Results reported in patent US20250154686A1, “COMPOUND LIBRARY” (CHUGAI SEIYAKU KABUSHIKI KAISHA, priority 2021, published 2025).

Biological target: T1, Bcl-2 protein (Recombinant Human Bcl-2 Protein) (Homo sapiens, UniProt P10415)
T1 construct: purchased Novus Biologicals NBP2-34889
Assay: AS-MS evaluation of binding of the Example 4 mixture library (1200 compounds/well) to Bcl-2, ASMS ratio (%)
Details: mixture library, value belongs to the MS peak assigned to the compound; for ASMS ratio (%) n = 1: replicate n = 1; for ASMS ratio (%) n = 2: replicate n = 2
Summary of the method: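 Affinity-selection MS: 1200 cpds/well, 20 nM each; hBcl-2 20 μM; 25 mM Tris pH 7.4/150 mM NaCl/0.025% Tween-20/1 mM DTT; 1 h, 23 °C, dark; P-2 size-exclusion spin, MeCN:MeOH 1:1 extraction; RP LC/MS; ratio vs no-protein STD and SEC blank.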

T1 sequence (P10415 whole entry): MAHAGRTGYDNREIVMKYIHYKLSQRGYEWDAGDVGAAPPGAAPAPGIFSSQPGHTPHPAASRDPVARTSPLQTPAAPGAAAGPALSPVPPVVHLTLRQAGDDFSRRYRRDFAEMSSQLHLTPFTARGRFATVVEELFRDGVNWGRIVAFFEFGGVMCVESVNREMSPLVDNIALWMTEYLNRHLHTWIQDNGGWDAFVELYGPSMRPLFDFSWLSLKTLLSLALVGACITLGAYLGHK

ASMS ratio (%) n = 1	ASMS ratio (%) n = 2	Structure (SMILES)
0.0%	0.0%	CCOc1cccc(-c2cc(CN3CCN(c4ccc(C(=O)NS(C)(=O)=O)nn4)CC3)cc(OCC)c2)c1 [Compound B2I081-01, 6-[4-[[3-Ethoxy-5-(3-ethoxyphenyl)phenyl]methyl]piperazin-1-yl]-N-methylsulfonylpyridazine-3-carboxamide]
0.0%	1.9%	CCOc1cncc(-c2cc(CN3CCN(c4ccc(C(=O)NS(C)(=O)=O)nn4)CC3)cc(OCC)c2)c1 [Compound B2I082-01, 6-[4-[[3-Ethoxy-5-(5-ethoxypyridin-3-yl)phenyl]methyl]piperazin-1-yl]-N-methylsulfonylpyridazine-3-carboxamide]
0.0%	0.0%	CCOc1cccc(-c2cc(CN3CCN(c4ccc(C(=O)NS(C)(=O)=O)nn4)CC3)cc(OC(C)C)c2)c1 [Compound B2I083-01, 6-[4-[[3-(3-Ethoxyphenyl)-5-propan-2-yloxyphenyl]methyl]piperazin-1-yl]-N-methylsulfonylpyridazine-3-carboxamide]
−0.9%	−1.5%	CCOc1cncc(-c2cc(CN3CCN(c4ccc(C(=O)NS(C)(=O)=O)nn4)CC3)cc(OC(C)C)c2)c1 [Compound B2I084-01, 6-[4-[[3-(5-Ethoxypyridin-3-yl)-5-propan-2-yloxyphenyl]methyl]piperazin-1-yl]-N-methylsulfonylpyridazine-3-carboxamide]
0.0%	0.0%	CCOc1cccc(-c2cc(OC)c(CN3CCN(c4ccc(C(=O)NS(C)(=O)=O)nn4)CC3)c(OC)c2)c1 [Compound B2I085-01, 6-[4-[[4-(3-Ethoxyphenyl)-2,6-dimethoxyphenyl]methyl]piperazin-1-yl]-N-methylsulfonylpyridazine-3-carboxamide]
0.0%	0.0%	CCOc1cncc(-c2cc(OC)c(CN3CCN(c4ccc(C(=O)NS(C)(=O)=O)nn4)CC3)c(OC)c2)c1 [Compound B2I086-01, 6-[4-[[4-(5-Ethoxypyridin-3-yl)-2,6-dimethoxyphenyl]methyl]piperazin-1-yl]-N-methylsulfonylpyridazine-3-carboxamide]
1.3%	−0.9%	CCOc1cccc(-c2cc(CN3CCN(c4ccc(C(=O)NS(C)(=O)=O)nn4)CC3)cc(C(F)(F)F)c2)c1 [Compound B2I087-01, 6-[4-[[3-(3-Ethoxyphenyl)-5-(trifluoromethyl)phenyl]methyl]piperazin-1-yl]-N-methylsulfonylpyridazine-3-carboxamide]
0.0%	0.0%	CCOc1cncc(-c2cc(CN3CCN(c4ccc(C(=O)NS(C)(=O)=O)nn4)CC3)cc(C(F)(F)F)c2)c1 [Compound B2I088-01, 6-[4-[[3-(5-Ethoxypyridin-3-yl)-5-(trifluoromethyl)phenyl]methyl]piperazin-1-yl]-N-methylsulfonylpyridazine-3-carboxamide]

The remaining lines, values behind:

Structure (SMILES)	ASMS ratio (%) n = 1	ASMS ratio (%) n = 2
CCOc1cccc(C#Cc2ccccc2CN2CCN(c3ccc(C(=O)NS(C)(=O)=O)cc3)CC2)c1 [Compound B2I069-01, 4-[4-[[2-[2-(3-Ethoxyphenyl)ethynyl]phenyl]methyl]piperazin-1-yl]-N-methylsulfonylbenzamide]	0.0%	−2.2%
CCOc1cncc(C#Cc2ccccc2CN2CCN(c3ccc(C(=O)NS(C)(=O)=O)cc3)CC2)c1 [Compound B2I070-01, 4-[4-[[2-[2-(5-Ethoxypyridin-3-yl)ethynyl]phenyl]methyl]piperazin-1-yl]-N-methylsulfonylbenzamide]		0.0%
CCOc1cccc(-c2ccccc2CN2CCN(c3ccc(C(=O)NS(C)(=O)=O)nn3)CC2)c1 [Compound B2I071-01, 6-[4-[[2-(3-Ethoxyphenyl)phenyl]methyl]piperazin-1-yl]-N-methylsulfonylpyridazine-3-carboxamide]	−1.2%	−1.9%
CCOc1cncc(-c2ccccc2CN2CCN(c3ccc(C(=O)NS(C)(=O)=O)nn3)CC2)c1 [Compound B2I072-01, 6-[4-[[2-(5-Ethoxypyridin-3-yl)phenyl]methyl]piperazin-1-yl]-N-methylsulfonylpyridazine-3-carboxamide]	0.8%	1.3%
CCOc1cccc(-c2ccc(CN3CCN(c4ccc(C(=O)NS(C)(=O)=O)nn4)CC3)cc2C)c1 [Compound B2I073-01, 6-[4-[[4-(3-Ethoxyphenyl)-3-methylphenyl]methyl]piperazin-1-yl]-N-methylsulfonylpyridazine-3-carboxamide]	0.0%	0.0%
CCOc1cncc(-c2ccc(CN3CCN(c4ccc(C(=O)NS(C)(=O)=O)nn4)CC3)cc2C)c1 [Compound B2I074-01, 6-[4-[[4-(5-Ethoxypyridin-3-yl)-3-methylphenyl]methyl]piperazin-1-yl]-N-methylsulfonylpyridazine-3-carboxamide]	0.0%	−8.4%
CCOc1cccc(-c2ccc(CN3CCN(c4ccc(C(=O)NS(C)(=O)=O)nn4)CC3)c(CC)c2)c1 [Compound B2I075-01, 6-[4-[[4-(3-Ethoxyphenyl)-2-ethylphenyl]methyl]piperazin-1-yl]-N-methylsulfonylpyridazine-3-carboxamide]	0.0%	0.0%
CCOc1cncc(-c2ccc(CN3CCN(c4ccc(C(=O)NS(C)(=O)=O)nn4)CC3)c(CC)c2)c1 [Compound B2I076-01, 6-[4-[[4-(5-Ethoxypyridin-3-yl)-2-ethylphenyl]methyl]piperazin-1-yl]-N-methylsulfonylpyridazine-3-carboxamide]	0.2%	−3.2%
CCOc1cccc(-c2ccc(CN3CCN(c4ccc(C(=O)NS(C)(=O)=O)nn4)CC3)cc2F)c1 [Compound B2I077-01, 6-[4-[[4-(3-Ethoxyphenyl)-3-fluorophenyl]methyl]piperazin-1-yl]-N-methylsulfonylpyridazine-3-carboxamide]	0.0%	0.0%
CCOc1cncc(-c2ccc(CN3CCN(c4ccc(C(=O)NS(C)(=O)=O)nn4)CC3)cc2F)c1 [Compound B2I078-01, 6-[4-[[4-(5-Ethoxypyridin-3-yl)-3-fluorophenyl]methyl]piperazin-1-yl]-N-methylsulfonylpyridazine-3-carboxamide]	0.0%	0.0%
CCOc1cccc(-c2ccc(CN3CCN(c4ccc(C(=O)NS(C)(=O)=O)nn4)CC3)c(OC)c2)c1 [Compound B2I079-01, 6-[4-[[4-(3-Ethoxyphenyl)-2-methoxyphenyl]methyl]piperazin-1-yl]-N-methylsulfonylpyridazine-3-carboxamide]	0.0%	0.0%
CCOc1cncc(-c2ccc(CN3CCN(c4ccc(C(=O)NS(C)(=O)=O)nn4)CC3)c(OC)c2)c1 [Compound B2I080-01, 6-[4-[[4-(5-Ethoxypyridin-3-yl)-2-methoxyphenyl]methyl]piperazin-1-yl]-N-methylsulfonylpyridazine-3-carboxamide]	0.0%	
